Data from the NIST ThermoML archive (doi:10.1016/j.tca.2018.04.007).
Numbers after ± are expanded uncertainties.

Experiments:
[1] = refractive index (Na D-line) (dimensionless); conditions: 101.33 kPa, Liquid, Standard Abbe refractometry
[2] = 101.33 kPa, Liquid; for viscosity: Capillary tube (Ostwald / Ubbelohde) method; for mass density: Vibrating tube method; for thermal conductivity: transient hot wire; for electrical conductivity: Direct current cell with electrodes

| Structure (SMILES) | refractive index ([1]; 283.15 K) | refractive index ([1]; 293.15 K) | refractive index ([1]; 303.15 K) | refractive index ([1]; 313.15 K) | refractive index ([1]; 323.15 K) | refractive index ([1]; 333.15 K) | refractive index ([1]; 343.15 K) | mass density ([2]; 283.15 K) | viscosity ([2]; 293.15 K) | electrical conductivity ([2]; 293.15 K) | mass density ([2]; 293.15 K) | thermal conductivity ([2]; 293.15 K) | viscosity ([2]; 303.15 K) | electrical conductivity ([2]; 303.15 K) | mass density ([2]; 303.15 K) | thermal conductivity ([2]; 303.15 K) | viscosity ([2]; 313.15 K) | thermal conductivity ([2]; 313.15 K) | thermal conductivity ([2]; 323.15 K) | thermal conductivity ([2]; 333.15 K) | further results |
| --- | --- | --- | --- | --- | --- | --- | --- | --- | --- | --- | --- | --- | --- | --- | --- | --- | --- | --- | --- | --- | --- |
| COS(=O)(=O)[O-].C[n+]1ccccc1 [1-methylpyridinium methylsulfate] | 1.5164 ± 0.0005 | 1.5139 ± 0.0005 | 1.5113 ± 0.0005 | 1.5088 ± 0.0005 | 1.5063 ± 0.0005 | 1.5039 ± 0.0005 | 1.5013 ± 0.0005 | 1355 ± 2.1 kg/m3 | 113.5 ± 2 mPa·s | 0.287 ± 0.029 S/m | 1348.1 ± 2.1 kg/m3 | 0.205 ± 0.002 W/m/K | 69.2 ± 0.9 mPa·s | 0.45 ± 0.045 S/m | 1341.3 ± 2.1 kg/m3 | 0.204 ± 0.002 W/m/K | 46 ± 0.6 mPa·s | 0.204 ± 0.002 W/m/K | 0.203 ± 0.002 W/m/K | 0.202 ± 0.002 W/m/K | viscosity ([2]; 283.15 K): 199 ± 4.9 mPa·s; thermal conductivity ([2]; 283.15 K): 0.205 ± 0.002 W/m/K; electrical conductivity ([2]; 313.15 K): 0.683 ± 0.068 S/m; mass density ([2]; 313.15 K): 1334.5 ± 2.1 kg/m3; viscosity ([2]; 323.15 K): 32 ± 0.4 mPa·s; electrical conductivity ([2]; 323.15 K): 0.986 ± 0.099 S/m; mass density ([2]; 323.15 K): 1327.8 ± 2.1 kg/m3; viscosity ([2]; 333.15 K): 23 ± 0.3 mPa·s; electrical conductivity ([2]; 333.15 K): 1.36 ± 0.14 S/m; mass density ([2]; 333.15 K): 1321.1 ± 2.1 kg/m3; viscosity ([2]; 343.15 K): 17.3 ± 0.2 mPa·s; electrical conductivity ([2]; 343.15 K): 1.75 ± 0.18 S/m; mass density ([2]; 343.15 K): 1314.5 ± 2.1 kg/m3; thermal conductivity ([2]; 343.15 K): 0.201 ± 0.002 W/m/K |
| CCCC[P+](C)(CCCC)CCCC.O=S(=O)([N-]S(=O)(=O)C(F)(F)F)C(F)(F)F | 1.4403 ± 0.0005 | 1.4374 ± 0.0005 | 1.4344 ± 0.0005 | 1.4314 ± 0.0005 | 1.4285 ± 0.0005 | 1.4255 ± 0.0005 | 1.4228 ± 0.0005 | 1267.21 ± 2 kg/m3 | 299.3 ± 9.5 mPa·s | 0.0367 ± 0.0037 S/m | 1258.68 ± 2 kg/m3 | 0.126 ± 0.002 W/m/K | 156 ± 3.4 mPa·s | 0.0743 ± 0.0074 S/m | 1250.31 ± 2 kg/m3 | 0.125 ± 0.002 W/m/K | 87.7 ± 1.3 mPa·s | 0.122 ± 0.002 W/m/K | 0.123 ± 0.002 W/m/K | 0.122 ± 0.002 W/m/K | viscosity ([2]; 283.15 K): 616.7 ± 26 mPa·s; thermal conductivity ([2]; 283.15 K): 0.126 ± 0.002 W/m/K; electrical conductivity ([2]; 313.15 K): 0.123 ± 0.012 S/m; mass density ([2]; 313.15 K): 1242.07 ± 2 kg/m3; viscosity ([2]; 323.15 K): 54.7 ± 0.7 mPa·s; electrical conductivity ([2]; 323.15 K): 0.187 ± 0.019 S/m; mass density ([2]; 323.15 K): 1233.84 ± 2 kg/m3; viscosity ([2]; 333.15 K): 38.4 ± 0.5 mPa·s; electrical conductivity ([2]; 333.15 K): 0.279 ± 0.028 S/m; mass density ([2]; 333.15 K): 1225.64 ± 2 kg/m3; viscosity ([2]; 343.15 K): 27.5 ± 0.3 mPa·s; electrical conductivity ([2]; 343.15 K): 0.405 ± 0.041 S/m; mass density ([2]; 343.15 K): 1217.49 ± 2 kg/m3; thermal conductivity ([2]; 343.15 K): 0.121 ± 0.002 W/m/K |
| CCCC[P+](C)(CCCC)CCCC.[Cl-] [methyltributylphosphonium chloride] | 1.5053 ± 0.0005 | 1.5037 ± 0.0005 | 1.4999 ± 0.0005 | 1.4972 ± 0.0005 | 1.4952 ± 0.0005 | 1.4923 ± 0.0005 | 1.4888 ± 0.0005 | 964.23 ± 2 kg/m3 | 13511 ± 1300 mPa·s | 0.00254 ± 0.00026 S/m | 958.67 ± 2 kg/m3 | 0.159 ± 0.002 W/m/K | 4692 ± 360 mPa·s | 0.0059 ± 0.00059 S/m | 953.44 ± 2 kg/m3 | 0.158 ± 0.002 W/m/K | 1914 ± 120 mPa·s | 0.157 ± 0.002 W/m/K | 0.156 ± 0.002 W/m/K | 0.155 ± 0.002 W/m/K | electrical conductivity ([2]; 313.15 K): 0.0131 ± 0.0013 S/m; mass density ([2]; 313.15 K): 948.08 ± 2 kg/m3; viscosity ([2]; 323.15 K): 859 ± 42 mPa·s; electrical conductivity ([2]; 323.15 K): 0.029 ± 0.0029 S/m; mass density ([2]; 323.15 K): 942.74 ± 2 kg/m3; viscosity ([2]; 333.15 K): 416.8 ± 16 mPa·s; electrical conductivity ([2]; 333.15 K): 0.052 ± 0.0052 S/m; mass density ([2]; 333.15 K): 937.42 ± 2 kg/m3; electrical conductivity ([2]; 343.15 K): 0.0941 ± 0.0094 S/m; mass density ([2]; 343.15 K): 932.12 ± 2 kg/m3; thermal conductivity ([2]; 343.15 K): 0.154 ± 0.002 W/m/K |
| CCCCn1cc[n+](C)c1.COS(=O)(=O)[O-] [1-butyl-3-methylimidazolium methyl sulfate] | 1.4831 ± 0.0005 | 1.4804 ± 0.0005 | 1.4781 ± 0.0005 | 1.4753 ± 0.0005 | 1.4729 ± 0.0005 | 1.4704 ± 0.0005 | 1.4678 ± 0.0005 | 1218.78 ± 2 kg/m3 | 269.1 ± 8 mPa·s | 0.104 ± 0.01 S/m | 1211.96 ± 2 kg/m3 | 0.177 ± 0.002 W/m/K | 151.9 ± 3.3 mPa·s | 0.177 ± 0.018 S/m | 1205.33 ± 2 kg/m3 | 0.176 ± 0.002 W/m/K | 91.7 ± 1.4 mPa·s | 0.176 ± 0.002 W/m/K | 0.174 ± 0.002 W/m/K | 0.173 ± 0.002 W/m/K | viscosity ([2]; 283.15 K): 531.6 ± 22 mPa·s; thermal conductivity ([2]; 283.15 K): 0.179 ± 0.002 W/m/K; electrical conductivity ([2]; 313.15 K): 0.279 ± 0.028 S/m; mass density ([2]; 313.15 K): 1198.79 ± 2 kg/m3; viscosity ([2]; 323.15 K): 59.6 ± 0.7 mPa·s; electrical conductivity ([2]; 323.15 K): 0.426 ± 0.043 S/m; mass density ([2]; 323.15 K): 1192.26 ± 2 kg/m3; viscosity ([2]; 333.15 K): 40.5 ± 0.5 mPa·s; electrical conductivity ([2]; 333.15 K): 0.623 ± 0.062 S/m; mass density ([2]; 333.15 K): 1185.76 ± 2 kg/m3; viscosity ([2]; 343.15 K): 28.9 ± 0.4 mPa·s; electrical conductivity ([2]; 343.15 K): 0.884 ± 0.088 S/m; mass density ([2]; 343.15 K): 1179.31 ± 2 kg/m3; thermal conductivity ([2]; 343.15 K): 0.172 ± 0.002 W/m/K |
| OCC(O)CO [glycerol] |  |  |  |  |  |  |  |  |  |  |  | 0.284 ± 0.002 W/m/K |  |  |  | 0.284 ± 0.002 W/m/K |  | 0.284 ± 0.002 W/m/K | 0.284 ± 0.002 W/m/K | 0.284 ± 0.002 W/m/K | thermal conductivity ([2]; 283.15 K): 0.284 ± 0.002 W/m/K |
| CCCC[P+](C)(CCCC)CCCC.COS(=O)(=O)[O-] [tributylmethylphosphonium methyl sulfate] | 1.4782 ± 0.0005 | 1.4755 ± 0.0005 | 1.4728 ± 0.0005 | 1.4702 ± 0.0005 | 1.4673 ± 0.0005 | 1.4647 ± 0.0005 | 1.4619 ± 0.0005 | 1066.59 ± 2 kg/m3 | 1434 ± 82 mPa·s | 0.00749 ± 0.00075 S/m | 1060.4 ± 2 kg/m3 | 0.16 ± 0.002 W/m/K | 650.6 ± 29 mPa·s | 0.0158 ± 0.0016 S/m | 1054.25 ± 2 kg/m3 | 0.159 ± 0.002 W/m/K | 339.2 ± 11 mPa·s | 0.159 ± 0.002 W/m/K | 0.158 ± 0.002 W/m/K | 0.157 ± 0.002 W/m/K | electrical conductivity ([2]; 313.15 K): 0.0278 ± 0.0028 S/m; mass density ([2]; 313.15 K): 1048.13 ± 2 kg/m3; viscosity ([2]; 323.15 K): 189.4 ± 4.6 mPa·s; electrical conductivity ([2]; 323.15 K): 0.0483 ± 0.0048 S/m; mass density ([2]; 323.15 K): 1042.02 ± 2 kg/m3; viscosity ([2]; 333.15 K): 113.9 ± 2 mPa·s; electrical conductivity ([2]; 333.15 K): 0.0882 ± 0.0088 S/m; mass density ([2]; 333.15 K): 1036.12 ± 2 kg/m3; viscosity ([2]; 343.15 K): 72.4 ± 1 mPa·s; electrical conductivity ([2]; 343.15 K): 0.139 ± 0.014 S/m; mass density ([2]; 343.15 K): 1030.18 ± 2 kg/m3; thermal conductivity ([2]; 343.15 K): 0.157 ± 0.002 W/m/K |
